# Experimental data reported in US7250410B2, “Cyclic nucleotide phosphodiesterase inhibitors, preparation and uses thereof” (Via Pharmaceuticals, Inc., priority 2001, dated 2007).
# Target: PDE4
# Experiment: Inhibition of PDE4, radioenzymatic phosphodiesterase assay
# Assay type: biochemical, bovine
# Settings: Table 1, formula (III); 1 μM cyclic AMP
# Procedure, shortened: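 PDE4 partially purified from bovine aortic media by 105,000 g centrifugation and anion-exchange chromatography with an NaCl gradient. Activity measured radioenzymatically: product nucleoside separated from nucleotides by anion exchange and counted by liquid scintillation.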
row,SMILES,IC50 [nM]
1,"COc1cc2c(cc1OC)C(c1ccc(-c3cccc(NC(C)=O)c3)cc1)=NN(C)C(=O)C2 [IIIam, 1-[4-(3-acetamidophenyl)phenyl]-7,8-dimethoxy-3-methyl-3,5-dihydro-4H-2,3-benzodiazepin-4-one]",1700
2,"COc1cc2c(cc1OC)C(c1ccc(Br)cc1)=NN(C)C(=O)C2 [IIIan, 1-(4-bromophenyl)-7,8-dimethoxy-3-methyl-3,5-dihydro-4H-2,3-benzodiazepin-4-one]",1800
3,"COc1cc2c(cc1OC)C(c1ccc(-c3cccc(C(C)=O)c3)cc1)=NN(C)C(=O)C2 [IIIak, 1-[4-(3-acetylphenyl)phenyl]-7,8-dimethoxy-3-methyl-3,5-dihydro-4H-2,3-benzodiazepin-4-one]",1800
4,"COc1cc2c(cc1OC)C(c1ccc(I)cc1)=NN(C)C(=O)C2 [IIIah, 1-(4-iodophenyl)-7,8-dimethoxy-3-methyl-3,5-dihydro-4H-2,3-benzodiazepin-4-one]",3100
5,"COc1cc2c(cc1OC)C(c1ccc(-c3ccc(C)cc3)cc1)=NN(C)C(=O)C2 [IIIas, 7,8-dimethoxy-3-methyl-1-[4-(4-methylphenyl)phenyl]-3,5-dihydro-4H-2,3-benzodiazepin-4-one]",2900

# Same assay, conditions: Table 1, formula (III); compound at 10 μM
row,SMILES,PDE4 percentage inhibition at 10 μM [%]
1,"COC(=O)CCCCCCCCCCCN1N=C(c2ccccc2)c2cc(OC)c(OC)cc2CC1=O [IIIae, 7,8-dimethoxy-3-(12-methoxy-12-oxododecyl)-1-phenyl-3,5-dihydro-4H-2,3-benzodiazepin-4-one]",19

# Same assay, conditions: Table 2, formula (XXII); 1 μM cyclic AMP
row,SMILES,IC50 [nM]
1,"CCOc1cc2c(cc1OCC)C(c1ccccc1)=NC(Cc1ccccc1)C(=O)N2 (centres unmarked) [XXIIaj, 3-benzyl-7,8-diethoxy-5-phenyl-1,3-dihydro-2H-1,4-benzodiazepin-2-one]",4400
2,"CCOc1cc2c(cc1OC)C(c1ccccc1)=NC(Cc1ccccc1)C(=O)N2 (centres unmarked) [XXIIbb, 3-benzyl-8-ethoxy-7-methoxy-5-phenyl-1,3-dihydro-2H-1,4-benzodiazepin-2-one]",15000
3,"COc1cc2c(cc1OC)C(c1cccc(Br)c1)=NCC(=O)N2 [XXIIak, 5-(3-bromophenyl)-7,8-dimethoxy-1,3-dihydro-2H-1,4-benzodiazepin-2-one]",13000
4,"COc1cc2c(cc1OC)C(c1ccc(Br)cc1)=NCC(=O)N2 [XXIIaf, 5-(4-bromophenyl)-7,8-dimethoxy-1,3-dihydro-2H-1,4-benzodiazepin-2-one]",15000

# Same assay, conditions: Table 2, formula (XXII); compound at 10 μM
row,SMILES,PDE4 percentage inhibition at 10 μM [%]
1,"COc1cc2c(cc1OC)C(c1ccccc1)=NCC(=O)N2 [XXIIaa, 7,8-dimethoxy-5-phenyl-1,3-dihydro-2H-1,4-benzodiazepin-2-one]",25.8
2,"COc1cc2c(cc1OC)C(c1ccccc1)=NC(CCSC)C(=O)N2 (centres unmarked) [XXIIat, 7,8-dimethoxy-3-(2-methylthioethyl)-5-phenyl-1,3-dihydro-2H-1,4-benzodiazepin-2-one]",29
3,"COc1cc2c(cc1OC)C(c1ccccc1)=N[C@@H](CCCCNC(=N)N)C(=O)N2.O=C(O)C(F)(F)F.O=C(O)C(F)(F)F [XXIIay, N-[4-(7,8-dimethoxy-2-oxo-5-phenyl-2,3-dihydro-1H-1,4-benzodiazepin-3-yl)butyl]guanidinium (S)-bis trifluoroacetate]",19.6
4,"COc1cc2c(cc1OC)C(c1ccccc1)=N[C@@H](CCCCNC(C)=O)C(=O)N2 [XXIIax, (S)-N-[4-(7,8-dimethoxy-2-oxo-5-phenyl-2,3-dihydro-1H-1,4-benzodiazepin-3-yl)butyl]acetamide]",6

# Same assay, conditions: Table 3, formula (II); 1 μM cyclic AMP
row,SMILES,IC50 [nM]
1,"CCN1C(=O)CN=C(c2ccc(C#CCOCc3ccccc3)cc2)c2cc(OC)c(OC)cc21 [IIbn, 5-{4-[3-(benzyloxy)prop-1-ynyl]phenyl}-1-ethyl-7,8-dimethoxy-1,3-dihydro-2H-1,4-benzodiazepin-2-one]",2950
2,"COc1cc2c(cc1OC)N(C)C(=O)CN=C2c1ccc2cc(OCc3ccccc3)ccc2c1 [IIao, 5-(6-benzyloxy-2-naphthyl)-7,8-dimethoxy-1-methyl-1,3-dihydro-1,4-benzodiazepin-2-one]",1600
3,"COc1cc2c(cc1OC)C(c1ccccc1)=NC(c1ccccc1CCNC(C)=O)C(=O)N2 (centres unmarked) [IIcm, N-[2-(7,8-dimethoxy-2-oxo-5-phenyl-2,3-dihydro-1H-1,4-benzodiazepin-3-yl)benzyl]methylacetamide]",1900
4,"CCOc1cc2c(cc1OC)C(c1ccccc1)=NC(Cc1ccccc1C#N)C(=O)N2C (centres unmarked) [IIdg, 2-[(8-ethoxy-7-methoxy-1-methyl-2-oxo-5-phenyl-2,3-dihydro-1H-1,4-benzodiazepin-3-yl)methyl]benzonitrile]",1100
5,"CCN1C(=O)C(Cc2ccccc2N)N=C(c2ccccc2)c2cc(OC)c(OC)cc21 (centres unmarked) [IIca, 7,8-dimethoxy-1-ethyl-3-(2-aminobenzyl)-5-phenyl-1,3-dihydro-2H-1,4-benzodiazepin-2-one]",2500
6,"CCN1C(=O)C(Cc2cccc(Br)c2)N=C(c2ccccc2)c2cc(OC)c(OC)cc21 (centres unmarked) [IIcj, 3-(3-bromobenzyl)-1-ethyl-7,8-dimethoxy-5-phenyl-1,3-dihydro-2H-1,4-benzodiazepin-2-one]",3760
7,"CCN1C(=O)CN=C(c2ccc(C#CCNC(=O)OC(C)(C)C)cc2)c2cc(OC)c(OC)cc21 [IIbo, tert-butyl 3-[4-(1-ethyl-7,8-dimethoxy-2-oxo-2,3-dihydro-1H-1,4-benzodiazepin-5-yl)phenyl]prop-2-ynylcarbamate]",2920
8,"COc1cc2c(cc1OC)N(C)C(=O)CN=C2c1cc2ccccc2o1 [IIag, 5-(2-benzo[b]furyl)-7,8-dimethoxy-1-methyl-1,3-dihydro-1,4-benzodiazepin-2-one]",4800
9,"CCN1C(=O)C(Cc2ccccc2Cl)N=C(c2ccccc2)c2cc(OC)c(OC)cc21 (centres unmarked) [IIcy, 3-(2-chlorobenzyl)-1-ethyl-7,8-dimethoxy-5-phenyl-1,3-dihydro-2H-1,4-benzodiazepin-2-one]",2800
10,"COc1cc2c(cc1OC)N(C)C(=O)CN=C2c1cccc(-c2ccccc2)c1 [IIay, 5-(1,1′-biphenyl-3-yl)-7,8-dimethoxy-1-methyl-1,3-dihydro-2H-1,4-benzodiazepin-2-one]",6600
11,"CCN1C(=O)C(Cc2ccccc2[N+](=O)[O-])N=C(c2ccccc2)c2cc(OC)c(OC)cc21 (centres unmarked) [IIbh, 7,8-dimethoxy-1-ethyl-3-(2-nitrobenzyl)-5-phenyl-1,3-dihydro-2H-1,4-benzodiazepin-2-one]",2400

# Same assay, conditions: Table 3, formula (II); compound at 10 μM
row,SMILES,PDE4 percentage inhibition at 10 μM [%]
1,"COc1cc2c(cc1OC)N(C)C(=O)CN=C2N1CCCCC1 [IIar, 7,8-dimethoxy-1-methyl-5-(piperidin-1-yl)-1,3-dihydro-1,4-benzodiazepin-2-one]",0
2,"COc1ccc2c(c1)C(c1ccccc1)=NCC(=O)N2C [IIdl, 7-methoxy-1-methyl-5-phenyl-1,3-dihydro-2H-1,4-benzodiazepin-2-one]",34.6
3,"CCN1C(=O)C(C(Cc2ccc(Br)cc2)c2ccc(Br)cc2)N=C(c2ccccc2)c2cc(OC)c(OC)cc21 (centres unmarked) [IIde, 3-[1,2-bis(4-bromophenyl)ethyl]-1-ethyl-7,8-dimethoxy-5-phenyl-1,3-dihydro-2H-1,4-benzodiazepin-2-one]",0
4,"COc1ccc2c(c1)N(C)C(=O)CN=C2c1ccccc1 [IIdm, 8-methoxy-1-methyl-5-phenyl-1,3-dihydro-2H-1,4-benzodiazepin-2-one]",16
